Tests used:
[1] = background statement; cited from earlier work
[2] = GABA by itself; cited from earlier work
[3] = test system: synaptic membranes of the rat cortex; assay: Binding of ^3H-GABA on synaptic membranes of the rat cortex (method of Enna and Snyder); settings: for Product bound % (^3H-GABA binding on rat cortex membranes): ^3H-GABA 2.10^-8 M
Source text: Table I presents the results of these tests, expressed in percentage of the fixed active product, comparing the in vitro activity of Product 1 with the activities of the individual components which comprise Product 1.

[4] = Anticonvulsant effects in rat (isoniazide convulsions); format: in vivo
Experimental: The in vivo activity of Product 1 was measured by the method described by Costa et al (E. Costa, A. Guidotti and C. C. Mao; "Evidence for involvement of GABA in the Action of Benzodiazepines: Studies in Rat Cerebellum" in Mechanism of Action of Benzodiazepines; Ed. by E. Costa and P. Greengard, New York, Raven Press. pp. 113-130 (1975)) and by Loescher and Frey (Loesher, W. and Frey, H. H.; "Effect of convulsant and anticonvulsant agents on level and metabolism of gamma-aminobutyric acid in mouse brain"; Naunyn-Schmiedeberg's Arch. Pharmacol. 296, 263-269 (1977)). These tests are based on the known activity of isoniazide to cause convulsions and a lowering of the GABA cerebral levels and the glutamic-decarboxylase enzyme activity.

[5] = mice; cited from earlier work
[6] = General pharmacological activity in vitro and in vivo; settings: tested in vitro and in vivo in laboratory animals
[7] = test substance 10^-8 M, 0.01 µM
[8] = isoniazide 160 mg/kg (s.c.) + GABA 8 mg/kg (i.p.)
[9] = isoniazide 160 mg/kg (s.c.) + Product 1 20 mg/kg (i.p.)

NCCCC(=O)O [GABA, Gamma-aminobutyric acid]
in vitro / in vivo activity, in words [1]: active in vitro but relatively inactive in vivo | penetration of the encephalic barrier, in words [2]: incapable, by itself, of penetrating the encephalic barrier | Product bound % (^3H-GABA binding on rat cortex membranes) ([3]; test substance 10^-4 M, 100 µM): 20% | Product bound % (^3H-GABA binding on rat cortex membranes) ([3]; test substance 10^-5 M, 10 µM): 20% | Product bound % (^3H-GABA binding on rat cortex membranes) ([3]; test substance 10^-6 M, 1 µM): 25% | Product bound % (^3H-GABA binding on rat cortex membranes) ([3]; test substance 10^-7 M, 0.1 µM): 45% | Product bound % (^3H-GABA binding on rat cortex membranes) [3, 7]: 90% | in vitro biological activity (GABA binding), in words ([3]; summary of Table I): activity comparable to that of Product 1 | Latency of the convulsions measured [4, 8]: 3100 ± 156 s | Number of animals in convulsions [4, 8]: 24/30 | Number of dead animals [4, 8]: 14 | effect when administered in vivo as measured by convulsion tests [5]: ineffective

CCCCCCCCCCCCCC=CC(O)C(CO)NC(=O)CCCN (stereo not shown) [Product 1, Gamma-aminobutyrylsphingosine amide]
Product bound % (^3H-GABA binding on rat cortex membranes) ([3]; test substance 10^-4 M, 100 µM): 20% | Product bound % (^3H-GABA binding on rat cortex membranes) ([3]; test substance 10^-5 M, 10 µM): 25% | Product bound % (^3H-GABA binding on rat cortex membranes) ([3]; test substance 10^-6 M, 1 µM): 40% | Product bound % (^3H-GABA binding on rat cortex membranes) ([3]; test substance 10^-7 M, 0.1 µM): 60% | Product bound % (^3H-GABA binding on rat cortex membranes) [3, 7]: 95% | action in the central nervous system, in words [6]: capable of acting directly in the central nervous system | in vivo (anticonvulsant) activity, in words ([4]; compared to GABA or sphingosine alone): far superior in vivo activity as compared to GABA or sphingosine alone | Latency of the convulsions measured [4, 9]: 4500 ± 330 s | Number of animals in convulsions [4, 9]: 9/30 | Number of dead animals [4, 9]: 3
